In ChEMBL document CHEMBL3046671, “Molecular design, synthesis and biological activities of amidines as new ketol-acid reductoisomerase inhibitors” (Chin Chem Lett, 2008):
Structures can show the parent of a compound that is named as a salt. Activity calls are given as the source filed them. The calls are words filed in the database; no cut-off is given here.

Experiments:
[1] = tested on: Echinochloa crus-galli; experiment: Herbicidal activity against Echinochloa crus-galli (barnyard grass) assessed as inhibition at 10 ug/ml by barnyardgrass cup test; format: functional
[2] = tested on: Echinochloa crus-galli; experiment: Herbicidal activity against Echinochloa crus-galli (barnyard grass) assessed as inhibition at 100 ug/ml by barnyardgrass cup test; format: functional
[3] = tested on: Brassica napus; experiment: Herbicidal activity against Brassica napus (oilseed rape) assessed as inhibition at 10 ug/ml by rape toot test; format: functional
[4] = tested on: Brassica napus; experiment: Herbicidal activity against Brassica napus (oilseed rape) assessed as inhibition at 100 ug/ml by rape toot test; format: functional
[5] = target: Ketol-acid reductoisomerase, chloroplastic (Oryza sativa subsp. japonica, UniProt Q65XK0); experiment: Inhibition of Oryza sativa KARI (rice)
Sequence of Ketol-acid reductoisomerase, chloroplastic (Q65XK0 whole entry): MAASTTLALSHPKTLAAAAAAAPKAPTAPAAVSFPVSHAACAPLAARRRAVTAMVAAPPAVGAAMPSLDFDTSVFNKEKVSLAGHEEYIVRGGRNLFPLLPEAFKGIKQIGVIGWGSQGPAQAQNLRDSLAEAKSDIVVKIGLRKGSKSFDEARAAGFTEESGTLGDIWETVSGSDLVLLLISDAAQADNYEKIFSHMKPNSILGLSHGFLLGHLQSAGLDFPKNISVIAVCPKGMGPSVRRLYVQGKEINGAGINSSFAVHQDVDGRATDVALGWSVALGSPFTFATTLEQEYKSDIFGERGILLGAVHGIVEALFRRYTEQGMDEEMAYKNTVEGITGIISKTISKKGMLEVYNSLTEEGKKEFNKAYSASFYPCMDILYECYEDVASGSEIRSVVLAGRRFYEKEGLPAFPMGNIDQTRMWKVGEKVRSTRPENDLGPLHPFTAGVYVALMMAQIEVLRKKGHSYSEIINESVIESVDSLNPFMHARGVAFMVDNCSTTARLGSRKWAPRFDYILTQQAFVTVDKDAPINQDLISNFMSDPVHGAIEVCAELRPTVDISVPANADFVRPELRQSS

[6] = target: T1, Ketol-acid reductoisomerase (NADP(+)) (Escherichia coli (strain K12), UniProt P05793); experiment: Inhibition of Escherichia coli KARI
T1 sequence (P05793 whole entry): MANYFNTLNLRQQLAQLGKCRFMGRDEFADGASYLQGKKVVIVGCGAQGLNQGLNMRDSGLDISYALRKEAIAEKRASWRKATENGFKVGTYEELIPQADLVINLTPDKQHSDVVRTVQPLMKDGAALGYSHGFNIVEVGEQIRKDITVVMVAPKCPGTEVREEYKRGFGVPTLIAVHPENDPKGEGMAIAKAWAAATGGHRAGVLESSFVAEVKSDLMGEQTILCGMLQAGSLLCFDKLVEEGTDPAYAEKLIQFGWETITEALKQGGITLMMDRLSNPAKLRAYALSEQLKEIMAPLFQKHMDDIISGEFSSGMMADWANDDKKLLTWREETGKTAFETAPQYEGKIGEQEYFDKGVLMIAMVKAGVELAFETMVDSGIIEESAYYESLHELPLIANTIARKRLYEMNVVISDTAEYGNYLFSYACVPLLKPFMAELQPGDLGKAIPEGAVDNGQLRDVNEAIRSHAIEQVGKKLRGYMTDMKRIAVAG

| Ki [5] [µM] | Ki [6] [µM] | SMILES | inhibition at 10 µg/mL [1] [%] | inhibition at 100 µg/mL [2] [%] | inhibition at 10 µg/mL [3] [%] | inhibition at 100 µg/mL [4] [%] | inhibition [1] |
| --- | --- | --- | --- | --- | --- | --- | --- |
| 411 | – | N=C(N)c1ccc(OCc2ccc(Cl)cc2)cc1 | – | – | – | – | – |
| 965 | – | N=C(N)c1ccc(OCc2ccccc2F)cc1 | – | – | – | – | – |
| > 649 | – | N=C(N)c1ccc(OCc2ccccn2)cc1 | – | – | – | – | – |
| 61 | – | CCCCCCCOc1ccc(C(=N)N)cc1 [4-(HEPTYLOXY)BENZIMIDAMIDE HYDROCHLORIDE] | 20.1 | 53 | 30.1 | 96.3 | – |
| > 1900 | – | CCOc1ccc(C(=N)N)cc1 [4-ETHOXYBENZIMIDAMIDE HYDROCHLORIDE] | – | 24.4 | 18.5 | 57.1 | inactive |
| 350 | 382 | N=C(N)c1ccc(OCCCCCOc2ccc(C(=N)N)cc2)cc1 [PENTAMIDINE ISETHIONATE] | 12.6 | 59.6 | 22.9 | 90.9 | – |

Continued, compound first:

| SMILES | Ki [5] [µM] | Ki [6] [µM] | inhibition at 10 µg/mL [1] [%] | inhibition at 100 µg/mL [2] [%] | inhibition at 10 µg/mL [3] [%] | inhibition at 100 µg/mL [4] [%] | inhibition [1] |
| --- | --- | --- | --- | --- | --- | --- | --- |
| N=C(N)c1ccc(OCc2ccc(Cl)cc2Cl)cc1 | 142 | – | 21.8 | 62.8 | 33.7 | 95.6 | – |
| N=C(N)c1ccc(OCc2cccc(Cl)c2)cc1 | 213 | – | 21.5 | 56.8 | 31.9 | 95.2 | – |
| C=CCOc1ccc(C(=N)N)cc1 [4-(ALLYLOXY)BENZIMIDAMIDE HYDROCHLORIDE] | > 1710 | – | – | – | – | – | – |
| N=C(N)c1ccc(OCc2ccccc2)cc1 [4-(BENZYLOXY)BENZIMIDAMIDE HYDROCHLORIDE] | > 1380 | – | – | – | – | – | – |
| CCCCCCOc1ccc(C(=N)N)cc1 [4-(HEXYLOXY)BENZIMIDAMIDE HYDROCHLORIDE] | 190 | – | 5.3 | 52.1 | 20.4 | 94 | – |
| CCCCCOc1ccc(C(=N)N)cc1 [4-(PENTYLOXY)BENZIMIDAMIDE HYDROCHLORIDE] | 1360 | – | – | – | – | – | – |
| CCCCOc1ccc(C(=N)N)cc1 [4-BUTOXYBENZIMIDAMIDE HYDROCHLORIDE] | 3530 | – | – | – | – | – | – |
| CC(C)Oc1ccc(C(=N)N)cc1 [4-ISOPROPOXYBENZIMIDAMIDE HYDROCHLORIDE] | > 1670 | – | – | – | – | – | – |
| COc1ccc(C(=N)N)cc1 [4-METHOXYBENZIMIDAMIDE HYDROCHLORIDE] | > 2080 | – | 16.2 | 18.3 | 6.9 | 48.5 | – |
| CCCOc1ccc(C(=N)N)cc1 [4-PROPOXYBENZIMIDAMIDE HYDROCHLORIDE] | > 1670 | – | – | – | – | – | – |
